Laboratory results: patent US4914245A, “Culpin” (E. R. Squibb & Sons, Inc., priority 1989, dated 1990)
Values after ≈ are worked out from the molar mass of the structure shown.

Tests used:
Format in all cases: cell-based
Streptococcus agalactiae = assay: agar dilution assay (MIC) vs Streptococcus agalactiae SC 9287; conditions: Streptococcus agalactiae S.C. No. 9287; K-10 agar; 10^4 CFU; 37° C., 18 hours
Procedure: (§1) The following methodology was used to determine the minimum inhibitory concentration (hereinafter referred to as MIC) of the compounds of this invention against bacteria. The test organisms were grown in 20 ml of Antibiotic Assay Broth (Difco) by inoculating the broth (in tubes) with a loopful of the organism from a BHI (Difco) agar slant. The inoculated tubes were incubated at 37° C. for 18 to 24 hours. These cultures were assumed to contain 10^9 colony forming units (CFU) per ml. The cultures were diluted 1:100 to give a final inoculum level of 10^7 CFU; dilutions were made with Yeast Beef Broth (Difco). The test compounds were dissolved in an appropriate diluent at a concentration of 1,000 μg/ml. Two-fold dilutions were made in Yeast Beef Broth (Difco), resulting in a range from 1000 μg/ml to 0.5 μg/ml. A 1.5 ml portion of each dilution was placed into individual petri dishes to which 13.5 ml of K-10 agar was added. The composition of K-10 agar is The final drug concentration in the agar ranged from 100 μg/ml to 0.05 μg/ml. Organism growth control plates containing agar only were prepared and inoculated before and after the test plates. […] The plates were incubated at 37° C. for 18 hours and the MICs determined. […]

Micrococcus luteus = assay: agar dilution assay (MIC) vs Micrococcus luteus SC 2495; conditions: Micrococcus luteus S.C. No. 2495; K-10 agar; 10^4 CFU; 37° C., 18 hours
Procedure: as §1

Candida tropicalis [1] = assay: agar dilution assay (MIC) vs Candida tropicalis SC 9861; conditions: Candida tropicalis S.C. No. 9861; F-4 agar; 10^3 CFU
Procedure: (§2) The following methodology was used to determine the minimum inhibitory concentration (hereinafter referred to as MIC) of the compounds of this invention against bacteria. The test organisms were grown in 20 ml of Antibiotic Assay Broth (Difco) by inoculating the broth (in tubes) with a loopful of the organism from a BHI (Difco) agar slant. The inoculated tubes were incubated at 37° C. for 18 to 24 hours. These cultures were assumed to contain 10^9 colony forming units (CFU) per ml. The cultures were diluted 1:100 to give a final inoculum level of 10^7 CFU; dilutions were made with Yeast Beef Broth (Difco). The test compounds were dissolved in an appropriate diluent at a concentration of 1,000 μg/ml. Two-fold dilutions were made in Yeast Beef Broth (Difco), resulting in a range from 1000 μg/ml to 0.5 μg/ml. A 1.5 ml portion of each dilution was placed into individual petri dishes to which 13.5 ml of K-10 agar was added. The composition of K-10 agar is
(§3) The final drug concentration in the agar ranged from 100 μg/ml to 0.05 μg/ml. Organism growth control plates containing agar only were prepared and inoculated before and after the test plates. […]
(§4) The plates were incubated at 37° C. for 18 hours and the MICs determined. […]

Mycobacterium fortuitum = assay: agar dilution assay (MIC) vs Mycobacterium fortuitum SC 8571; conditions: Mycolicibacterium fortuitum; Mycobacterium fortuitum S.C. No. 8571; K-10 agar; 10^4 CFU; 37° C., 18 hours
Procedure: as §1

Candida tropicalis [2] = assay: agar dilution assay (MIC) vs Candida tropicalis SC 2963; conditions: Candida tropicalis S.C. No. 2963; F-4 agar; 10^3 CFU
Procedure: as §2, §3, §4

Escherichia coli = assay: agar dilution assay (MIC) vs Escherichia coli SC 10909; conditions: Escherichia coli S.C. No. 10909; K-10 agar; 10^4 CFU; 37° C., 18 hours
Procedure: as §1

## C=C(C)C#Cc1cc(O)c(CC=C(C)C)cc1O [culpin, 2-(3-methyl-2-butenyl)-5-(3-methyl-3-buten-1-ynyl)-1,4-benzenediol]
Streptococcus agalactiae
  MIC: 50 µg/mL (≈ 206 µM)
Micrococcus luteus
  MIC: 100 µg/mL (≈ 413 µM)
Candida tropicalis [1]
  MIC: 50 µg/mL (≈ 206 µM)
Mycobacterium fortuitum
  MIC: 50 µg/mL (≈ 206 µM)
Candida tropicalis [2]
  MIC: 50 µg/mL (≈ 206 µM)
Escherichia coli
  MIC: 100 µg/mL (≈ 413 µM)
